Test [1] has as its system UCP1. Details: method as in Heaton and Nicholls, 1977; Divakaruni et al, 2012. As to conditions: whole mitochondria; ref Heaton and Nicholls, 1977; Divakaruni et al, 2012; cited from earlier work.
For another test, the target named is T1, human DIC (SLC25A10) (Homo sapiens, UniProt Q9UBX3).
T1 construct: His8 (N, cleaved yes); Factor Xa protease cleavage site (N, cleaved yes); made in house; host or cells: Saccharomyces cerevisiae protease-deficient strain BJ2186
T1 sequence (Q9UBX3 1-287): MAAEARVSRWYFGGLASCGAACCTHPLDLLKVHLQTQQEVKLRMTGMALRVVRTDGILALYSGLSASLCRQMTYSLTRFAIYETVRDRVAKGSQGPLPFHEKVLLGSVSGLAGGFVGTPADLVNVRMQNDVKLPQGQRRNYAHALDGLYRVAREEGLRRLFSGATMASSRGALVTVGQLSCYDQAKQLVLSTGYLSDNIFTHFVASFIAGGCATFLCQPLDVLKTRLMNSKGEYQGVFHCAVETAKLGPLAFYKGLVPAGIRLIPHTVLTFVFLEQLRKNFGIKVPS
Put plainly: Differential scanning fluorimetry (nanoDSF) thermal stability shift assay. The class given is binding. As to conditions: 1 mM nucleotide, pH 6.0, single repeats (source data Fig. 4A). From the text:
UCP1 is phylogenetically related to mitochondrial dicarboxylate carriers, gaining thermogenic properties as a later evolutionary development (Hughes et al, [2009]; Robinson et al, [2008]). The mitochondrial dicarboxylate carrier (DIC, SLC25A10) and oxoglutarate carrier (OGC, SLC25A11) are most closely related to UCP1 (Gaudry et al, [2019]; Hughes et al, [2009]) and share many residues involved in nucleotide binding in UCP1, such as the arginine triplet at the contact points, R92 and Q85 (Jones et al, [2024]). Given the similarity of the central cavity of UCP1, OGC and DIC, we tested whether the dicarboxylate carriers have the ability to bind nucleotides. For this purpose, we purified human DIC and OGC, and tested whether nucleotides were able to generate a thermostability shift, as observed for their physiological substrates (Pyrihová et al, [2024]). However, all tested nucleotides caused a negligible shift with both DIC or OGC at all pH values tested between 6.0 and 8.0 (Fig. 4A; Appendix Fig. S5). Thus, despite having many residues in common (Fig. 4B–D), UCP1 has evolved to have a few specific residues that allow high-affinity binding of nucleotides without a strong selection for nucleobase.
Differential scanning fluorimetry (nanoDSF) (Alexandrov et al, [2008]) was carried out with 2 µg UCP1, DIC or OGC protein (100 mM MES/HEPES, pH range 6.0–8.0, 25 mM NaCl, 1 mM TCEP, 0.01% lauryl maltose neopentyl glycol and 0.01 mg/mL tetraoleoyl cardiolipin) and, when required, 1 mM nucleotide, as indicated. The proteins have the following number of tryptophans: UCP1 (two); OGC (two); DIC (one). The samples were loaded into nanoDSF-grade standard glass capillaries. The temperature was increased by […] every minute from 25 to 95 °C, the intrinsic fluorescence was measured in a Prometheus NT.48 nanoDSF device, and the apparent Tm was calculated with the PR.ThermControl software (NanoTemper Technologies).

Test [2] deals with T2, UCP1 (Homo sapiens, UniProt P25874).
T2 construct: His8 (N, cleaved yes); Factor Xa protease cleavage site (N, cleaved yes); made in house; host or cells: Saccharomyces cerevisiae strain W303.1B
T2 sequence (P25874 1-307): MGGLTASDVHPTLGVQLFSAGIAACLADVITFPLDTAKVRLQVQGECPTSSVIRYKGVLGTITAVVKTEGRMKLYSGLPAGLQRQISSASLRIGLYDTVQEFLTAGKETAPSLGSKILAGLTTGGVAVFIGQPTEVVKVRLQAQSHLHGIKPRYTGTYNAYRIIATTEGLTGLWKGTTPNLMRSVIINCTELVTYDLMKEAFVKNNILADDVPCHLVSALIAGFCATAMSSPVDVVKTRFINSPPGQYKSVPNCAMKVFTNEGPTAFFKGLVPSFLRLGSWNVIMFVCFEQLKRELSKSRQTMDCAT
Described as above. The class given is binding. As to conditions: for ΔTm at 1000 µM: read-out: thermal shift (ΔTm).

Test [3] has as its target T2, UCP1. Briefly: Isothermal titration calorimetry of nucleotide binding.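 As to all read-outs here: purified human UCP1 in cacodylate buffer with lauryl maltose neopentyl glycol and cardiolipin, titrated with nucleotides, isotherms fitted by one-site model yielding ΔH, Kd and stoichiometry.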 As to conditions: for isotherm data point (enthalpy change per injection): representative isotherm. Set-up: isotherm data point (enthalpy change per injection): unit not given here.
The target of test [4] is T2, UCP1. Briefly: Liposome reconstitution and proton conductance assay (pyranine fluorescence). The class given is biochemical. As to conditions: UCP1 proteoliposomes, 200 µM oleic acid alone, 2.5 µM valinomycin; single reconstitutions.
Test [5] has as its target T3, human uncoupling protein 1 (human, UniProt P25874).
T3 construct: human uncoupling protein 1 (UCP1, SLC25A7), Uniprot P25874; Detergent-solubilised, with tetraoleoyl cardiolipin; also called UCP1; SLC25A7; source: Saccharomyces cerevisiae W303.1B, purified from mitochondria (Ni Sepharose, on-column Factor Xa cleavage); not shown: His8, N-terminal, cleaved
Briefly: cryo-EM structure; UCP1, PMb65 and PMb71 mixed stoichiometrically, overnight at 4 °C; complex separated by SEC (20 mM MES pH 6.0, 150 mM NaCl, 0.02% lauryl maltose neopentyl glycol, 0.02 mg/mL tetraoleoyl cardiolipin, 1 mM TCEP); 2 mM UTP and 2 mM D-maltose added; 3.03 Å. As to conditions: both partners purified.

Several values for one entry are separate records, joined by “and”; a condition that tells them apart may be missing. Equal values may be shown once. Read-outs that look alike come from different tables or passages of the source.

Turning to `Nc1ccn(C2OC(COP(=O)(O)OP(=O)(O)OP(=O)(O)O)C(O)C2O)c(=O)n1` (centres unmarked) [CTP], in the test with UCP1 [1], the “competition with GDP binding” value is listed as “unable to displace the binding of GDP”. Moreover, on human DIC (SLC25A10), the “change in apparent melting temperature (ΔTm) of hDIC” value is on record as 0.0. On UCP1 [2] (1 mM nucleotide, pH 6.0, detergent-solubilised UCP1, mean of three biological repeats), the “temperature shift (ΔTm)” value came out at 12.5 °C. Further, the ΔTm at 1000 µM is 12.3 °C on UCP1 [2] (pH 6, 1 mM nucleotide, pH 6.0, single repeats (source data Fig. 1D)); 7.9 °C on UCP1 [2] (pH 6.5, 1 mM nucleotide, pH 6.5, single repeats (source data Fig. 1D)); 4.4 °C on UCP1 [2] (pH 7, 1 mM nucleotide, pH 7.0, single repeats (source data Fig. 1D)). Moreover, the “binding affinity to UCP1 (in words)” value at UCP1 [3] (ITC) is on record as “lowest affinity”. For the same molecule, the Kd on UCP1 [3] (ITC, pH 6.0, 20 °C, mean ± standard deviation of three biological repeats (Fig. 2A-E)) was 4.85 ± 0.69 µM; on UCP1 [3] (ITC, single biological repeats (source data Fig. 2F)), 5.47 µM and 4.96 µM and 4.11 µM. For the same molecule, the “isotherm data point (enthalpy change per injection)” value was -22.2743 on UCP1 [3] (Molar ratio (Nucleotide/UCP) 0.120417, pH 6.0, 20 °C); -21.186 on UCP1 [3] (Molar ratio (Nucleotide/UCP) 0.181226, pH 6.0, 20 °C); -19.9722 at UCP1 [3] (Molar ratio (Nucleotide/UCP) 0.242439, pH 6.0, 20 °C); -20.0539 on UCP1 [3] (Molar ratio (Nucleotide/UCP) 0.304059, pH 6.0, 20 °C); -20.6988 at UCP1 [3] (Molar ratio (Nucleotide/UCP) 0.366087, pH 6.0, 20 °C); -18.255 at UCP1 [3] (Molar ratio (Nucleotide/UCP) 0.428528, pH 6.0, 20 °C). The “isotherm data point (enthalpy change per injection)” value at UCP1 [3] (Molar ratio (Nucleotide/UCP) 0.491383, pH 6.0, 20 °C) is -16.7607; on UCP1 [3] (Molar ratio (Nucleotide/UCP) 0.554656, pH 6.0, 20 °C) it was -16.5202; at UCP1 [3] (Molar ratio (Nucleotide/UCP) 0.618348, pH 6.0, 20 °C), -14.6191; on UCP1 [3] (Molar ratio (Nucleotide/UCP) 0.682464, pH 6.0, 20 °C) it was -13.3617; at UCP1 [3] (Molar ratio (Nucleotide/UCP) 0.747006, pH 6.0, 20 °C) it was -10.6677; on UCP1 [3] (Molar ratio (Nucleotide/UCP) 0.811976, pH 6.0, 20 °C), -10.8499. In addition, the “isotherm data point (enthalpy change per injection)” value at UCP1 [3] (Molar ratio (Nucleotide/UCP) 0.877378, pH 6.0, 20 °C) is recorded as -10.2913; on UCP1 [3] (Molar ratio (Nucleotide/UCP) 0.943214, pH 6.0, 20 °C), -8.027; on UCP1 [3] (Molar ratio (Nucleotide/UCP) 1.00949, pH 6.0, 20 °C), -6.97; at UCP1 [3] (Molar ratio (Nucleotide/UCP) 1.0762, pH 6.0, 20 °C), -6.038; on UCP1 [3] (Molar ratio (Nucleotide/UCP) 1.14336, pH 6.0, 20 °C) it was -5.024; at UCP1 [3] (Molar ratio (Nucleotide/UCP) 1.21096, pH 6.0, 20 °C), -4.446. Also, the “isotherm data point (enthalpy change per injection)” value at UCP1 [3] (Molar ratio (Nucleotide/UCP) 1.27901, pH 6.0, 20 °C) is -2.802; on UCP1 [3] (Molar ratio (Nucleotide/UCP) 1.34751, pH 6.0, 20 °C) it was -2.027; on UCP1 [3] (Molar ratio (Nucleotide/UCP) 1.41647, pH 6.0, 20 °C) it was -1.98; on UCP1 [3] (Molar ratio (Nucleotide/UCP) 1.48589, pH 6.0, 20 °C), -0.1226; at UCP1 [3] (Molar ratio (Nucleotide/UCP) 1.55577, pH 6.0, 20 °C), -0.8262; at UCP1 [3] (Molar ratio (Nucleotide/UCP) 1.62611, pH 6.0, 20 °C), -0.604. Also, the “isotherm data point (enthalpy change per injection)” value is listed as -1.2037 at UCP1 [3] (Molar ratio (Nucleotide/UCP) 1.69692, pH 6.0, 20 °C); -0.3877 at UCP1 [3] (Molar ratio (Nucleotide/UCP) 1.76819, pH 6.0, 20 °C); 0.4921 at UCP1 [3] (Molar ratio (Nucleotide/UCP) 1.83995, pH 6.0, 20 °C); -0.1525 on UCP1 [3] (Molar ratio (Nucleotide/UCP) 1.91217, pH 6.0, 20 °C); -0.1288 on UCP1 [3] (Molar ratio (Nucleotide/UCP) 1.98488, pH 6.0, 20 °C).
On to `CCCCCCCC/C=C\CCCCCCCC(=O)O` [OA, oleic acid], for which the Proton influx rate on UCP1 [4] was 908.51 nmol H+/min and 699.43 nmol H+/min and 609.97 nmol H+/min.

B1: Pro-macrobody PMb65 (VHH)
VHH: QVQLVESGGGLVQAGGSLRLSCAPSGRTSSTYTMGWFRQAPGKEREFVAAISWTGTPYYADSVKGRFTISRDNAKNTVYLQMNSLKPEDTAVYYCAAARPGLFIFVSDYARTAKYDYWGQGTQVTVPP
notes: llama nanobody CA9865; Expressed from the vector pBXNPHM3 (Addgene 110099); also called CA9865; source: E. coli MC1061, purified (Ni-NTA, 3C cleavage, Strep-Tactin XT); not shown: His-tagged MBP, N-terminal, cleaved
Turning to B1, the binding result in test [5] is reported as “binds”.

B2: Pro-macrobody PMb71 (VHH)
VHH: QVQLVESGGGLVQAGDSLRLSCAASGLTLKNYAMGWFRQAPGKEHEFVAVISWSGSGTSYADSVEGRFTISRDNAKNTAFLQMSSLKPEDTAVYYCAARDGGYGSRWPDEYTYWGQGTQVTVPP
notes: llama nanobody CA9871; Expressed from the vector pBXNPHM3 (Addgene 110099); also called CA9871; source: E. coli MC1061, purified (Ni-NTA, 3C cleavage, Strep-Tactin XT); not shown: His-tagged MBP, N-terminal, cleaved
In the case of B2, the binding result in test [5] is on record as “binds”.

Source of the values: paper PMC12000319, “Proton conductance by human uncoupling protein 1 is inhibited by purine and pyrimidine nucleotides” (The EMBO Journal, 2025).
